Experimental data taken from patent US20200397749A1, “COMPOSITIONS AND METHODS FOR TREATING ACUTE CANNABINOID OVERDOSE WITH A CANNABINOID RECEPTOR ANTAGONIST” (Opiant Pharmaceuticals, Inc., priority 2019, published 2020).

Experiments:
[1] = Solubility of drinabant in excipients; type: physicochemical
Procedure: Drinabant may be added to a fixed volume of aqueous solution with and without various amounts of water soluble carriers such as Solutol HS 15 in screw capped bottles. […] Filtered solutions are then analyzed for drinabant concentration using an appropriate method such as UV/visible spectrophotometry at an appropriate wavelength (nm) or by HPLC.
Two different categories of excipients, described in the literature as injectable intravenously, were tested for the solubility of drinabant:
(§1) The chemical composition of the selected excipients, as well the solubility of drinabant, are renorted in the table below.

[2] = cited from earlier work
[3] = Stability at RT of drinabant in the saturated solution; type: physicochemical
Description: as §1

drinabant solubility ([1]; in Cremophor EL (POE hydrogenated castor oil)): 49.4 mg/g
drinabant solubility ([1]; in Glycerol): <<0.0001 mg/g
drinabant solubility ([1]; in Glycofurol): 139.4 mg/g
drinabant solubility ([1]; in PEG 400): 50 mg/g
drinabant solubility ([1]; in PS80 VG (POE monooleate)): 48.8 mg/g
drinabant solubility ([1]; in Propylene glycol): 7 mg/g
drinabant solubility ([1]; in Solutol HS15 (PEG hydroxystearate), at 40° C.): 64.6 mg/g
Stability at RT of drinabant in the saturated solution ([3]; in Cremophor EL): Stable
Stability at RT of drinabant in the saturated solution ([3]; in PS80 VG): Stable
Stability at RT of drinabant in the saturated solution ([3]; in Solutol HS15): Stable
Compound: CS(=O)(=O)N(c1cc(F)cc(F)c1)C1CN(C(c2ccc(Cl)cc2)c2ccc(Cl)cc2)C1 [drinabant]
Tmax ([2]; oral drinabant): > 3 h
safety and tolerability ([2]; oral, up to 240 mg up to 3 weeks (Phase I), 60 mg up to 24 weeks (Phase II)): safe and well tolerated
